Measured values reported in patent US20240174680A1, “CDK2 INHIBITORS AND METHODS OF USING THE SAME” (Cedilla Therapeutics, Inc., priority 2021, published 2024).
pIC50: −log10 of the molar value.

Target: CDK2/Cyclin E1 (Homo sapiens, UniProt P24941)
Test: CDK2/Cyclin E1 Caliper LabChip EZ Reader mobility shift assay
Format: biochemical
Design: purchased Eurofins 14-475
Conditions: read-out: Caliper Assay (CDK2/CCNE1): IC50
Method in brief: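 Mobility-shift kinase assay: compound titrations preincubated 30 min with enzyme and ATP, reaction started with 5-FAM-QSPKKG-CONH2 peptide. Final 2.5 nM CDK2/Cyclin E1, 100 μM ATP, 1.5 μM peptide, HEPES pH 7.5; stopped with EDTA after 100 min. IC50 from four-parameter fit of normalized conversion ratio.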

Row | SMILES | pIC50
1 | C[C@@H](OCC1CCCCC1)[C@H](NC(=O)C1CN(C(=O)c2cnn(Cc3ccccc3)c2)CC12CN(C(=O)[C@H]1CC1(C)C)C2)C(=O)N1CC(C)(C)C1 (stereo partly shown) [I-153 mixture] | ≥ 8.00
2 | CCCCC1CC1C(=O)N1CC2(CN(C(=O)c3cnn(Cc4ccccc4)c3)C[C@H]2C(=O)N[C@H](C(=O)NC)[C@@H](C)OCc2ccccc2)C1 (stereo partly shown) [I-94A] | < 5.00
3 | CNC(=O)[C@@H](NC(=O)[C@@H]1CN(Cc2ccncc2)CC12CN(C(=O)[C@H]1CC1(C)C)C2)[C@@H](C)OCc1ccccc1 [I-55A] | < 5.00
4 | CNC(=O)[C@@H](NC(=O)[C@H]1CN(C(=O)c2cn[nH]c2)CC12CN(C(=O)CC1CC1)C2)[C@@H](C)OCc1ccccc1 [I-41B] | < 5.00
5 | CCCCC1CC1C(=O)N1CC2(CN(C(=O)c3cnn(Cc4ccccc4)c3)C[C@@H]2C(=O)N[C@H](C(=O)NC)[C@@H](C)OCc2ccccc2)C1 (stereo partly shown) [I-94B] | < 5.00
6 | CNC(=O)[C@@H](NC(=O)[C@@H]1CN(C(=O)c2cncs2)CC12CN(C(=O)CC1CC1)C2)[C@@H](C)OCC1CCCCC1 [I-103A] | 6.00 to 7.00
7 | COc1cccc(CNC(=O)[C@@H]2CN(C(=O)c3cnn(Cc4ccccc4)c3)CC23CN(C(=O)[C@H]2CC2(C)C)C3)n1 [I-126A] | < 5.00
8 | CC1(C)C[C@@H]1C(=O)N1CC2(CN(C(=O)c3cnn(Cc4ccccc4)c3)C[C@@H]2C(=O)NC2CCN(C(=O)c3ccccc3)CC2)C1 [I-61B] | < 5.00
9 | CNC(=O)[C@@H](NC(=O)[C@H]1CN(C(=O)c2cnn(Cc3ccccc3)c2)CC12CN(C(=O)C1(C#N)CC1)C2)[C@@H](C)OCc1ccccc1 [I-73B] | < 5.00
10 | CNC(=O)[C@@H](NC(=O)[C@H]1CN(C(=O)c2cnn(Cc3ccccc3)c2)CC12CN(C(=O)[C@H]1CC1(C)C)C2)[C@@H](C)OCC1CCC(C(F)(F)F)CC1 (stereo partly shown) [I-141B] | 6.00 to 7.00
11 | CNC(=O)[C@@H](NC(=O)[C@H]1CN(C(=O)c2cnc(COC(C)(C)C)s2)CC12CN(C(=O)[C@H]1CC1(C)C)C2)[C@@H](C)OCC1CCCCC1 [I-175B] | 6.00 to 7.00
12 | CC1(C)C[C@@H]1C(=O)N1CC2(CN(C(=O)c3cnn(Cc4ccccc4)c3)C[C@@H]2C(=O)N[C@H]2CCc3cc(Cl)ccc32)C1 [I-133B] | 5.00 to 6.00
13 | CNC(=O)[C@@H](NC(=O)[C@H]1CN(S(=O)(=O)c2cnn(Cc3ccccc3)c2)CC12CN(C(=O)[C@H]1CC1(C)C)C2)[C@@H](C)OCc1ccccc1 [I-79B] | < 5.00
14 | C[C@@H](OCC1CCCCC1)[C@H](NC(=O)[C@@H]1CN(C(=O)c2cnn(Cc3ccccc3)c2)CC12CN(C(=O)[C@H]1CC1(C)C)C2)C(=O)N1CCC(F)(F)CC1 [I-149A] | ≥ 8.00
15 | CC1(C)C[C@@H]1C(=O)N1CC2(CN(C(=O)c3cnn(Cc4ccccc4)c3)C[C@H]2C(=O)NCc2nnc[nH]2)C1 [I-191A] | < 5.00
16 | CNC(=O)[C@@H](NC(=O)[C@@H]1CN(C(=O)c2cnn(CC(F)(F)F)c2)CC12CN(C(=O)CC1CC1)C2)[C@@H](C)OCc1ccccc1 [I-43A] | < 5.00
17 | CNC(=O)[C@@H](NC(=O)[C@H]1CN(C(=O)c2cnn(CC3CC3)c2)CC12CN(C(=O)CC1CC1)C2)[C@@H](C)OCc1ccccc1 [I-53B] | < 5.00
18 | C[C@@H](OCC1CCC(F)(F)CC1)[C@H](NC(=O)[C@@H]1CN(C(=O)c2cnn(Cc3ccc(F)cc3)c2)CC12CN(C(=O)[C@H]1CC1(C)C)C2)C(=O)N1CCC(F)(F)CC1 [I-164A] | ≥ 8.00
19 | CC1(C)C[C@@H]1C(=O)N1CC2(CN(C(=O)c3cnn(Cc4ccccc4)c3)C[C@@H]2C(=O)N[C@H]2CCCN(C(=O)c3ccccc3)C2)C1 [I-83B] | < 5.00
20 | CNC(=O)[C@@H](NC(=O)[C@H]1CN(C(=O)c2cnn(Cc3ccccc3)c2)CC12CN(C(=O)C(C)(C)F)C2)[C@@H](C)OCc1ccccc1 [I-90B] | < 5.00
21 | CNC(=O)[C@@H](NC(=O)[C@@H]1CN(C(=O)c2cnn(Cc3ccccc3)c2)CC12CN(C(=O)C(C)(C)C)C2)[C@@H](C)OCC1CCCCC1 [I-174A] | 7.00 to 8.00
22 | CNC(=O)[C@@H](NC(=O)[C@H]1CN(C(=O)c2cnn(CC3CCOCC3)c2)CC12CN(C(=O)[C@H]1CC1(C)C)C2)[C@@H](C)OCc1ccccc1 [I-95B] | < 5.00
23 | CC1(C)C[C@@H]1C(=O)N1CC2(CN(C(=O)c3cnn(Cc4ccccc4)c3)C[C@H]2C(=O)Nc2ccc(-c3ccccc3)cc2)C1 [I-81A] | 6.00 to 7.00
24 | CC1(C)C[C@@H]1C(=O)N1CC2(CN(C(=O)c3cnn(Cc4ccccc4)c3)C[C@H]2C(=O)N[C@H]2C[C@@H]2c2cccc(Cl)c2)C1 [I-140A] | 6.00 to 7.00
25 | CNC(=O)[C@@H](NC(=O)[C@H]1CN(C(=O)c2sc(C(C)C)nc2C)CC12CN(C(=O)[C@H]1CC1(C)C)C2)[C@@H](C)OCC1CCCCC1 [I-227B] | < 5.00
26 | CNC(=O)[C@@H](NC(=O)[C@H]1CN(C(=O)c2cccnc2)CC12CN(C(=O)[C@H]1CC1(C)C)C2)[C@@H](C)OCc1ccccc1 [I-42B] | < 5.00
27 | CNC(=O)[C@@H](NC(=O)[C@@H]1CN(C(=O)c2scnc2C(C)(C)C)CC12CN(C(=O)[C@H]1CC1(C)C)C2)[C@@H](C)OCC1CCCCC1 [I-231A] | 5.00 to 6.00
28 | CNC(=O)[C@@H](NC(=O)[C@@H]1CN(C(=O)c2cnn(Cc3ccccc3)c2)CC12CN(C(=O)C1(CC3CC3)CC1)C2)[C@@H](C)OCc1ccccc1 [I-116A] | < 5.00
29 | CNC(=O)[C@@H](NC(=O)[C@H]1CN(C(=O)C2CCNC2)CC12CN(C(=O)[C@H]1CC1(C)C)C2)[C@@H](C)OCc1ccccc1 (stereo partly shown) [I-70B] | < 5.00

More lines, now with the values ahead:

Row | pIC50 | SMILES
30 | 6.00 to 7.00 | CNC(=O)[C@@H](NC(=O)[C@@H]1CN(C(=O)c2cnn(Cc3ccccc3)c2)CC12CN(C(=O)[C@H]1CC1(C)C)C2)[C@@H](C)OCc1cccc(O)c1 [I-262]
31 | < 5.00 | CC1(C)C[C@@H]1C(=O)N1CC2(CN(C(=O)c3cnn(Cc4ccccc4)c3)C[C@H]2C(=O)N2CCO[C@@H](Cc3ccccc3)C2)C1 [I-210]
32 | 6.00 to 7.00 | CC1(C)C[C@@H]1C(=O)N1CC2(CN(C(=O)c3cncs3)C[C@H]2C(=O)NC(c2cccc(C3CCCCC3)n2)P(C)(C)=O)C1 (stereo partly shown) [I-494]
33 | 7.00 to 8.00 | CNC(=O)[C@@H](NC(=O)[C@@H]1CN(C(=O)c2cncs2)CC12CN(C(=O)[C@H]1CC1(C)C)C2)C1(OCC2CCCCC2)CC1 [I-401]
34 | 6.00 to 7.00 | CNC(=O)C(NC(=O)[C@@H]1CN(C(=O)c2cncs2)CC12CN(C(=O)[C@H]1CC1(C)C)C2)c1cccc(N2CCCCC2)n1 (stereo partly shown) [I-432]
35 | ≥ 8.00 | C[C@@H](OCC1CCCCC1)[C@H](NC(=O)C1CN(C(=O)c2cnn(Cc3ccccc3)c2)CC12CN(C(=O)[C@H]1CC1(C)C)C2)C(=O)N1CC2(CCC2)C1 (stereo partly shown) [I-107]
36 | ≥ 8.00 | CNC(=O)[C@@H](NC(=O)[C@@H]1CN(C(=O)c2cnn(Cc3ccc(F)cc3)c2)CC12CN(C(=O)[C@H]1CC1(C)C)C2)[C@@H](C)OCC1CCC(F)(F)CC1 [I-170]
37 | 7.00 to 8.00 | C[C@@H](OCC1CCC(F)(F)CC1)[C@H](NC(=O)[C@@H]1CN(C(=O)c2cn[nH]c2)CC12CN(C(=O)C1(C(F)(F)F)CC1)C2)C(=O)N1CCOCC1 [I-302]
38 | ≥ 8.00 | C[C@@H](OCC1CCCCC1)[C@H](NC(=O)[C@@H]1CN(C(=O)c2cncs2)CC12CN(C(=O)[C@H]1CC1(C)C)C2)C(=O)N1CCC(c2cnc[nH]2)CC1 [I-406]
39 | 7.00 to 8.00 | C[C@@H](OCc1ccccc1)[C@H](NC(=O)C1CN(C(=O)c2cnn(Cc3ccccc3)c2)CC12CN(C(=O)[C@H]1CC1(C)C)C2)C(=O)NCC#CCO (stereo partly shown) [I-20]
40 | 6.00 to 7.00 | C[C@@H](OCC1(C(F)(F)F)CC1)[C@H](NC(=O)[C@@H]1CN(C(=O)c2cncs2)CC12CN(C(=O)[C@H]1CC1(C)C)C2)C(=O)N1CCC(F)(F)CC1 [I-287]
41 | < 5.00 | CC1(C)C[C@@H]1C(=O)N1CC2(CN(C(=O)c3cnn(Cc4ccccc4)c3)C[C@H]2C(=O)N2CCO[C@H](Cc3ccccc3)C2)C1 [I-255]
42 | ≥ 8.00 | C[C@@H](OCC1CCC(F)(F)CC1)[C@H](NC(=O)[C@@H]1CN(C(=O)c2cncs2)CC12CN(C(=O)[C@H]1CC1(C)C)C2)C(=O)N1CCC(C(F)(F)F)CC1 [I-398]
43 | ≥ 8.00 | Cc1nc(C)c(C(=O)N2C[C@@H](C(=O)N[C@H](C(=O)N3CCC4(CC3)COC4)[C@@H](C)OCC34CCC(CC3)OC4)C3(C2)CN(C(=O)[C@H]2CC2(C)C)C3)s1 [I-343]
44 | < 5.00 | CO[C@H](C)[C@H](NC(=O)[C@@H]1CN(C(=O)c2cnn(C)c2)CC12CN(C(=O)[C@H]1CC1(C)C)C2)C(=O)N1CCCCC1 [I-303]
45 | ≥ 8.00 | COC1CCN(C(=O)[C@@H](NC(=O)[C@@H]2CN(C(=O)c3cncs3)CC23CN(C(=O)[C@H]2CC2(C)C)C3)[C@@H](C)OCC2CCC(F)(F)CC2)CC1 [I-385]
46 | 5.00 to 6.00 | CNC(=O)[C@@H](NC(=O)C1CN(C(=O)c2cnn(Cc3ccccc3)c2)CC12CN(C(=O)[C@H]1CC1(C)C)C2)[C@@H](C)OCc1ccccn1 (stereo partly shown) [I-257]
47 | ≥ 8.00 | C[C@@H](OCC1CCCCC1)[C@H](NC(=O)[C@@H]1CN(C(=O)c2cnn(Cc3ccccc3)c2)CC12CN(C(=O)[C@H]1CC1(C)C)C2)C(=O)NCC(C)(C)C(=O)O [I-472]
48 | ≥ 8.00 | C[C@@H](OCC1CCCCC1)[C@@H](COC1CCOCC1)NC(=O)[C@@H]1CN(C(=O)c2cncs2)CC12CN(C(=O)[C@H]1CC1(C)C)C2 [I-331]
49 | 5.00 to 6.00 | CNC(=O)[C@@H](NC(=O)[C@@H]1CN(C(=O)c2cnn(Cc3ccccc3)c2)CC12CN(C(=O)[C@H]1CC1(C)C)C2)[C@@H](C)N(C)CC1CCCCC1 [I-266]
50 | 7.00 to 8.00 | CC(O[C@H](C)[C@H](NC(=O)[C@@H]1CN(C(=O)c2cncs2)CC12CN(C(=O)[C@H]1CC1(C)C)C2)C(=O)N1CCCCC1)C1CCCCC1 (stereo partly drawn) [I-284, (8S)—N-((2S,3R)-3-(1-cyclohexylethoxy)-1-oxo-1-(piperidin-1-yl)butan-2-yl)-2-((S)-2,2-dimethylcyclopropane-1-carbonyl)-6-(thiazole-5-carbonyl)-2,6-diazaspiro[3.4]octane-8-carboxamide]
51 | 7.00 to 8.00 | C[C@@H](OCC1CC(F)(F)C1)[C@@H](CO)NC(=O)[C@@H]1CN(C(=O)c2cncs2)CC12CN(C(=O)[C@H]1CC1(C)C)C2 [I-412]
52 | 7.00 to 8.00 | CNC(=O)[C@@H](NC(=O)[C@@H]1CN(C(=O)c2cnn(Cc3ccccc3)c2)CC12CN(C(=O)[C@H]1CC1(C)C)C2)[C@@H](C)OCC12CC(C(=O)OC)(C1)C2 [I-299]
